Assays:
RC-K8 = assay: Combination of EPZ-6438 and other therapeutic agents (4+3 model), RC-K8; settings: WT EXH2 ABC
OCI-LY19 = assay: Combination of EPZ-6438 and other therapeutic agents (4+3 model), OCI-LY19; settings: WT EZH2 GCB; 4+3 model
WSU-DLCL2 = assay: Combination of EPZ-6438 and other therapeutic agents (4+3 model), WSU-DLCL2; settings: Mutant EZH2 GCB; EPZ-6438 4 days then co-treatment 3 days (4+3 model)
SU-DHL-6 = assay: Combination of EPZ-6438 and other therapeutic agents (4+3 model), SU-DHL-6; settings: Mutant EZH2 GCB
SU-DHL-10 = assay: Combination of EPZ-6438 and other therapeutic agents (4+3 model), SU-DHL-10; settings: Mutant EZH2 GCB
OCI-LY3 = assay: Combination of EPZ-6438 and other therapeutic agents (4+3 model), OCI-LY3; settings: WT EXH2 ABC
KARPAS-422 = assay: Combination of EPZ-6438 and other therapeutic agents (4+3 model), KARPAS-422; settings: Mutant EZH2 GCB
SUDHL5 = assay: Combination of EPZ-6438 and other therapeutic agents (4+3 model), SUDHL5; settings: WT EZH2 GCB
TMD8 = assay: Combination of EPZ-6438 and other therapeutic agents (4+3 model), TMD8; settings: WT EXH2 ABC
SUDHL2 = assay: Combination of EPZ-6438 and other therapeutic agents (4+3 model), SUDHL2; settings: WT EXH2 ABC
DOHH2 = assay: Combination of EPZ-6438 and other therapeutic agents (4+3 model), DOHH2; format: cell-based; settings: WT EZH2 GCB
HT = assay: Combination of EPZ-6438 and other therapeutic agents (4+3 model), HT; settings: WT EZH2 GCB
OCI-LY7 = assay: Combination of EPZ-6438 and other therapeutic agents (4+3 model), OCI-LY7; settings: WT EZH2 GCB
Farage = assay: Combination of EPZ-6438 and other therapeutic agents (4+3 model), Farage; settings: WT EZH2 GCB

Compound | combination effect with EPZ-6438, WSU-DLCL2 (WSU-DLCL2) | combination effect with EPZ-6438, SU-DHL-6 (SU-DHL-6) | combination effect with EPZ-6438, SU-DHL-10 (SU-DHL-10) | combination effect with EPZ-6438, KARPAS-422 (KARPAS-422) | combination effect with EPZ-6438, SUDHL5 (SUDHL5) | also measured
CC1(C)CCC(CN2CCN(c3ccc(C(=O)NS(=O)(=O)c4ccc(NCC5CCOCC5)c([N+](=O)[O-])c4)c(Oc4cnc5[nH]ccc5c4)c3)CC2)=C(c2ccc(Cl)cc2)C1 [ABT-199] | S | ADD. | ADD. | S | – | combination effect with EPZ-6438, RC-K8 (RC-K8): S; combination effect with EPZ-6438, OCI-LY19 (OCI-LY19): S; combination effect with EPZ-6438, OCI-LY3 (OCI-LY3): S
COc1cc(Nc2ncc3c(n2)-c2ccc(Cl)cc2C(c2c(F)cccc2OC)=NC3)ccc1C(=O)O [Alisertib] | ADD. | – | ADD. | – | ADD. | –
Cc1nc(Nc2ncc(C(=O)Nc3c(C)cccc3Cl)s2)cc(N2CCN(CCO)CC2)n1 [Dasatinib] | S | – | S | – | S | combination effect with EPZ-6438, TMD8 (TMD8): S
Cn1cc(C2=C(c3cn(C4CCN(Cc5ccccn5)CC4)c4ccccc34)C(=O)NC2=O)c2ccccc21 [Enzastaurin] | ADD. | – | S | – | ADD. | –
COc1cc([C@@H]2c3cc4c(cc3[C@@H](O[C@@H]3O[C@@H]5CO[C@@H](C)O[C@H]5[C@H](O)[C@H]3O)[C@H]3COC(=O)[C@H]23)OCO4)cc(OC)c1O [Etoposide] | S | – | – | S | S | –
Cc1cnc(Nc2ccc(OCCN3CCCC3)cc2)nc1Nc1cccc(S(=O)(=O)NC(C)(C)C)c1 [Fedratinib] | – | – | – | – | – | combination effect with EPZ-6438, SUDHL2 (SUDHL2): ADD.
CC(C)NC[C@@H](C(=O)N1CCN(c2ncnc3c2[C@H](C)C[C@H]3O)CC1)c1ccc(Cl)cc1 [GDC0068, Ipatasertib] | S | – | – | S | S | –
CCn1c(-c2nonc2N)nc2c(C#CC(C)(C)O)ncc(OC[C@H]3CCCNC3)c21 [GSK690693] | S | – | – | S | S | –
CCn1cc(-c2ccnc3[nH]c(-c4cccc(CN(C)C)c4)cc23)c(-c2ccc(NC(=O)N(C)C)cc2)n1 [GSK1070916] | S | – | ADD. | – | – | –
COc1ncc(-c2ccc3nccc(-c4ccnnc4)c3c2)cc1NS(=O)(=O)c1ccc(F)cc1F [GSK2126458, Omipalisib] | S | – | – | S | S | –
CCOC(=O)CCNc1cc(N2CCc3ccccc3CC2)nc(-c2ccccn2)n1 [GSK J4] | ADD. | ADD. | – | – | – | combination effect with EPZ-6438, SUDHL2 (SUDHL2): ADD.; combination effect with EPZ-6438, DOHH2 (DOHH2): ADD.; combination effect with EPZ-6438, RC-K8 (RC-K8): ADD.; combination effect with EPZ-6438, OCI-LY19 (OCI-LY19): ADD.
CC[C@H](Nc1ncnc2[nH]cnc12)c1nc2cccc(F)c2c(=O)n1-c1ccccc1 [Idelalisib] | S | S | S | S | S | combination effect with EPZ-6438, HT (HT): S; combination effect with EPZ-6438, RC-K8 (RC-K8): S; combination effect with EPZ-6438, TMD8 (TMD8): S; combination effect with EPZ-6438, OCI-LY7 (OCI-LY7): S; combination effect with EPZ-6438, Farage (Farage): S; combination effect with EPZ-6438, OCI-LY3 (OCI-LY3): S
Cc1sc2c(c1C)C(c1ccc(Cl)cc1)=N[C@@H](CC(=O)OC(C)(C)C)c1nnc(C)n1-2 [JQ1] | S | S | – | S | – | combination effect with EPZ-6438, SUDHL2 (SUDHL2): S; combination effect with EPZ-6438, RC-K8 (RC-K8): S; combination effect with EPZ-6438, OCI-LY19 (OCI-LY19): S
Nc1cccc2c1CN(C1CCC(=O)NC1=O)C2=O (stereo not shown) [Lenalidomide] | – | – | – | – | – | combination effect with EPZ-6438, RC-K8 (RC-K8): S
NC1(c2ccc(-c3nc4ccn5c(=O)[nH]nc5c4cc3-c3ccccc3)cc2)CCC1 [MK-2206] | S | S | S | S | S | combination effect with EPZ-6438, HT (HT): S; combination effect with EPZ-6438, RC-K8 (RC-K8): S; combination effect with EPZ-6438, OCI-LY19 (OCI-LY19): S; combination effect with EPZ-6438, TMD8 (TMD8): S; combination effect with EPZ-6438, OCI-LY7 (OCI-LY7): S; combination effect with EPZ-6438, Farage (Farage): S; combination effect with EPZ-6438, OCI-LY3 (OCI-LY3): S
CN(Cc1cnc2nc(N)nc(N)c2n1)c1ccc(C(=O)N[C@@H](CCC(=O)O)C(=O)O)cc1 [Methotrexate] | ANTAG. | – | – | – | – | combination effect with EPZ-6438, SUDHL2 (SUDHL2): ANTAG.; combination effect with EPZ-6438, DOHH2 (DOHH2): ANTAG.; combination effect with EPZ-6438, RC-K8 (RC-K8): ANTAG.; combination effect with EPZ-6438, OCI-LY19 (OCI-LY19): ANTAG.
CC1(C)CCC(c2ccc(Cl)cc2)=C(CN2CCN(c3ccc(C(=O)NS(=O)(=O)c4ccc(N[C@H](CCN5CCOCC5)CSc5ccccc5)c(S(=O)(=O)C(F)(F)F)c4)cc3)CC2)C1 [Navitoclax] | S | S | S | S | – | combination effect with EPZ-6438, RC-K8 (RC-K8): S; combination effect with EPZ-6438, OCI-LY19 (OCI-LY19): S; combination effect with EPZ-6438, OCI-LY7 (OCI-LY7): S; combination effect with EPZ-6438, OCI-LY3 (OCI-LY3): S
COC1=CC(c2cc3ccccc3[nH]2)=N/C1=C\c1[nH]c(C)cc1C [Obatoclax] | ADD. | ADD. | ADD. | S | – | –
CC(=O)c1c(C)c2cnc(Nc3ccc(N4CCNCC4)cn3)nc2n(C2CCCC2)c1=O [Palbociclib] | S | – | – | S | S | –
CN(C)C(=O)c1cc2cnc(Nc3ccc(N4CCNCC4)cn3)nc2n1C1CCCC1 [Ribociclib] | S | – | – | S | S | –
N#CC[C@H](C1CCCC1)n1cc(-c2ncnc3[nH]ccc23)cn1 [Ruxolitinib] | – | – | S | – | – | combination effect with EPZ-6438, TMD8 (TMD8): S
CNC(=O)c1cc(Oc2ccc(NC(=O)Nc3ccc(Cl)c(C(F)(F)F)c3)cc2)ccn1 [Sorafenib] | ADD. | – | – | – | – | –
COc1cc(Nc2ncc(F)c(Nc3ccc4c(n3)NC(=O)C(C)(C)O4)n2)cc(OC)c1OC [Tamatinib] | S | S | S | S | S | combination effect with EPZ-6438, SUDHL2 (SUDHL2): S; combination effect with EPZ-6438, HT (HT): S; combination effect with EPZ-6438, TMD8 (TMD8): S; combination effect with EPZ-6438, OCI-LY7 (OCI-LY7): S; combination effect with EPZ-6438, Farage (Farage): S; combination effect with EPZ-6438, OCI-LY3 (OCI-LY3): S
CC(=O)Nc1cccc(-n2c(=O)n(C3CC3)c(=O)c3c(Nc4ccc(I)cc4F)n(C)c(=O)c(C)c32)c1 [Trametinib] | S | S | S | S | S | combination effect with EPZ-6438, TMD8 (TMD8): S; combination effect with EPZ-6438, OCI-LY7 (OCI-LY7): S; combination effect with EPZ-6438, Farage (Farage): S; combination effect with EPZ-6438, OCI-LY3 (OCI-LY3): S
CC(C)C[C@H](NC(=O)[C@H](Cc1ccccc1)NC(=O)c1cnccn1)B(O)O [Velcade] | ADD. | ADD. | ADD. | – | – | –
CCCS(=O)(=O)Nc1ccc(F)c(C(=O)c2c[nH]c3ncc(-c4ccc(Cl)cc4)cc23)c1F [Vemurafenib] | ADD. | – | – | – | – | –
OG-L002 | – | – | – | – | – | combination effect with EPZ-6438, SUDHL2 (SUDHL2): ANTAG.
Rituximab: therapeutic agent combined with EPZ-6438; component of R-CHOP | S | S | – | – | – | –
